Reference: paper PMC9000625, “Target Design of Novel Histone Deacetylase 6 Selective Inhibitors with 2-Mercaptoquinazolinone as the Cap Moiety” (Molecules, 2022)
Several values for one entry are separate records, joined by “and”; a condition that tells them apart may be missing. Equal entries are not always repeated. Where two headings read alike, the source gives them in different places.

Tests used:
MCF-7 cells = assay: Antiproliferative assay (CELLOMAX viability), MCF-7; format: cell-based, human; settings: for Emax: MCF7, highest concentration 250 µM, read-out: Imax (%); for Emax / IC50: MCF-7, 48 h; for IC50: read-out: IC50 (µM), antiproliferative activity against MCF-7
Experimental: The MCF-7 cell line was obtained from Korean Cell Line Bank (KCLB, Seoul, Korea). The cells were cultured in vitro in DMEM (Invitrogen, Paisley, UK) containing 10% fetal bovine serum (Gibco, Thermo Fisher Scientific, Waltham, MA, USA) and 1% penicillin. Cells were treated with different concentrations of compounds (1–15) in a 1:3 the highest concentration was 250 µM (before dilution) and further incubated for 48 hrs. […] We evaluated the antiproliferative activity of compound 8 against a variety of cells.
The MCF-7 cell line was obtained from ATCC. The cells were cultured in vitro in DMEM (Invitrogen, Paisley, UK) containing 10% fetal bovine serum (Gibco, Thermo Fisher Scientific, Waltham, MA) and 1% penicillin. For cytotoxicity assays, MCF-7 cells were seeded into 96-well culture plates at […] in 0.1 mL of DMEM and incubated at 37 °C with 5% CO2 and 90% humidity. After 16 h, the cells were treated with drugs (250 μM, serially diluted up to three-fold) for 48 h. Cell viability was measured using the CELLOMAXTM Viability Assay kit (Precaregene Co., Seoul, Korea). UV absorption at 450 nm wavelength was measured using an Infinite M200 microplate reader (Tecan, Zürich, Switzerland). The IC50 values were calculated using Prism v7.0 (GraphPad Software Inc., La Jolla, CA). The inhibitory activity of the tested compounds was evaluated by an 8-point dose–response curve (DRC) analysis in triplicates.

HDAC6 = molecular target: T1, HDAC6 (Homo sapiens, UniProt Q9UBN7); assay: HDAC enzyme inhibition assay, HDAC6; format: biochemical
T1 construct: purchased PBS Biosciences [sic]
T1 sequence (Q9UBN7 1-1215): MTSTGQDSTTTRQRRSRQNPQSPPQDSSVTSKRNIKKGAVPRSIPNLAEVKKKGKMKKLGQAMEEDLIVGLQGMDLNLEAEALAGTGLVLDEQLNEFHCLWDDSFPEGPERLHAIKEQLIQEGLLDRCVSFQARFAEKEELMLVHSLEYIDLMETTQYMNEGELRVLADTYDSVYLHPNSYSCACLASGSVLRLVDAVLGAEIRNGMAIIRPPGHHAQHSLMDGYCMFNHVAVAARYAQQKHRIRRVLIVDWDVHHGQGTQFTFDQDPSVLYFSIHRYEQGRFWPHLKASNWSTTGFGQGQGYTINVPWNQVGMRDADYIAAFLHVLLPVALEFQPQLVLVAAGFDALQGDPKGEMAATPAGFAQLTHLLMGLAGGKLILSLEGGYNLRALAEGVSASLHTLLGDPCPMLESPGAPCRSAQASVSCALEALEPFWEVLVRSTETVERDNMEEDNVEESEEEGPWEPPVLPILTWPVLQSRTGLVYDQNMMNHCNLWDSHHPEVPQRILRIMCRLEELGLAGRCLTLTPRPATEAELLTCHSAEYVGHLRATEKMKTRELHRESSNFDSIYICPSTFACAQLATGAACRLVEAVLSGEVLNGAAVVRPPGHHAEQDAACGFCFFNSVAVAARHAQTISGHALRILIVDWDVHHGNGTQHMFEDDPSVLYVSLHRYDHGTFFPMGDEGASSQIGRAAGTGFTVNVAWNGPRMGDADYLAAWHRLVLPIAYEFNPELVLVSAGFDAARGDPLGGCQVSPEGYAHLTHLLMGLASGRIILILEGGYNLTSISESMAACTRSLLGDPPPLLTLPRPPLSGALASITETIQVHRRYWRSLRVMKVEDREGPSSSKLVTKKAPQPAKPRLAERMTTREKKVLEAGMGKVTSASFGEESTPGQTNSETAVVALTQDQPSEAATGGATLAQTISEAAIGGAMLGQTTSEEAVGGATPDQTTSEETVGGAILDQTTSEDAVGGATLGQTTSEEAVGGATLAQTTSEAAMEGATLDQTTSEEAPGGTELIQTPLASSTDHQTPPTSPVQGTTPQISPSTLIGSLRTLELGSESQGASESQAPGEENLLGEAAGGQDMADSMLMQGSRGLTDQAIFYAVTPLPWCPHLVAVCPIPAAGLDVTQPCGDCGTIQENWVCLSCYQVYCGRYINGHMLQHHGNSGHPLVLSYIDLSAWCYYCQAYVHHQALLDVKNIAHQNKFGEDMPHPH
Experimental: (§1) The compounds were diluted to the indicated concentrations and mixed with HDAC enzymes (HDAC1, HDAC3, HDAC6, HDAC8, HDAC11) and the substrate for 1 h (PBS Biosciences). The fluorescence intensity was measured according to the manufacturer’s instructions.

PANC1 cells = assay: Antiproliferation, PANC1; format: cell-based; settings: Homo sapiens, PANC-1; Pancreas
MDA-MB 231 cells = assay: Antiproliferation, MDA-MB 231; format: cell-based; settings: Homo sapiens, Breast
EMT 6 cells = assay: Antiproliferation, EMT 6; format: cell-based; settings: Mus musculus, EMT6; Breast
SKOV3 cells = assay: Antiproliferation, SKOV3; format: cell-based; settings: Homo sapiens, SK-OV-3; Ovarian
Hepa1c1c7 cells = assay: Antiproliferation, Hepa1c1c7; format: cell-based; settings: Hepa-1c1c7; Liver
SW620 cells = assay: Antiproliferation, SW620; format: cell-based; settings: Homo sapiens, SW-620; Colon
N2A cells = assay: Antiproliferation, N2A; format: cell-based; settings: Mus musculus, Brain
HDAC4 = molecular target: T2, HDAC4 (Homo sapiens, UniProt P56524); assay: HDAC enzyme inhibition assay, HDAC4; format: biochemical; settings: read-out: IC50 (µM) HDAC4 (Class IIa)
T2 construct: purchased PBS Biosciences [sic]
T2 sequence (P56524 whole entry): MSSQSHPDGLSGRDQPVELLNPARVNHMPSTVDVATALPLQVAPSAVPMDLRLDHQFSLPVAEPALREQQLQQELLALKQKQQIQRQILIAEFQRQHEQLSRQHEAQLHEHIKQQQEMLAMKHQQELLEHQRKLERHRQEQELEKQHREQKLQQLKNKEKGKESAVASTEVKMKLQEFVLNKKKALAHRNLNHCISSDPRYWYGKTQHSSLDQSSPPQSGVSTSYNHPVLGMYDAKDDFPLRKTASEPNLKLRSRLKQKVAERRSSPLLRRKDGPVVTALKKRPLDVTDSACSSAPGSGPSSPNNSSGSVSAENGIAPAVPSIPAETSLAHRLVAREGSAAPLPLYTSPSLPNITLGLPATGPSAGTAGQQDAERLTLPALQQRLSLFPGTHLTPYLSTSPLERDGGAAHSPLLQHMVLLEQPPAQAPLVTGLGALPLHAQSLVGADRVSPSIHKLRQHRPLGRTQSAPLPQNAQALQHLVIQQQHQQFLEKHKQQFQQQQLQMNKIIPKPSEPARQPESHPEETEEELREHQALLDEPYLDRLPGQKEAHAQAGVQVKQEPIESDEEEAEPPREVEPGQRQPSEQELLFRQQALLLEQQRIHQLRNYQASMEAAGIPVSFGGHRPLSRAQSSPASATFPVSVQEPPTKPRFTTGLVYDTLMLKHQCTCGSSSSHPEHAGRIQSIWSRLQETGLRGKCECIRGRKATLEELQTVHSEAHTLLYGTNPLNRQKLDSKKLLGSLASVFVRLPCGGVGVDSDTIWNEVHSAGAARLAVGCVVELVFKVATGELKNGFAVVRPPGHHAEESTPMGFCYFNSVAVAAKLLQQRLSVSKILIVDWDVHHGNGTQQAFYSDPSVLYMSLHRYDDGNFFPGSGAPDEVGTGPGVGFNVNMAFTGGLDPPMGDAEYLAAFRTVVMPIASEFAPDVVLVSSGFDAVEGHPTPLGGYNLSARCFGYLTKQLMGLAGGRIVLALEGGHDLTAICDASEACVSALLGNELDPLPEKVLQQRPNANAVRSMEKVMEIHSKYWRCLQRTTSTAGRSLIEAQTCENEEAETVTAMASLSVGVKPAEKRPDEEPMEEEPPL

HDAC8 = molecular target: T3, HDAC8 (Homo sapiens, UniProt Q9BY41); assay: HDAC enzyme inhibition assay, HDAC8; format: biochemical; settings: read-out: IC50 (µM) HDAC8 (Class I)
T3 construct: purchased PBS Biosciences [sic]
T3 sequence (Q9BY41 1-377): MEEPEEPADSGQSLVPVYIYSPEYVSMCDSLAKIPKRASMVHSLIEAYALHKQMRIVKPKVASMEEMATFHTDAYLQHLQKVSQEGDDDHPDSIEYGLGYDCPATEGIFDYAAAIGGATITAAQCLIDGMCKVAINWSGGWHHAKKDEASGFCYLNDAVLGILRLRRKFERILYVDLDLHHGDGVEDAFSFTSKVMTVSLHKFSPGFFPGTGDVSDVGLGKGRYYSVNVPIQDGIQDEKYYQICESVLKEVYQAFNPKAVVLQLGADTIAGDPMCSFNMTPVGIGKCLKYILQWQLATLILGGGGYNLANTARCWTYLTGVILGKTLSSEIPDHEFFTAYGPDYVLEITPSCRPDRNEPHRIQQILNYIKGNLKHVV
Experimental: as §1

HDAC11 = molecular target: T4, HDAC11 (Homo sapiens, UniProt Q96DB2); assay: HDAC enzyme inhibition assay, HDAC11; format: biochemical
T4 construct: purchased PBS Biosciences [sic]
T4 sequence (Q96DB2 1-347): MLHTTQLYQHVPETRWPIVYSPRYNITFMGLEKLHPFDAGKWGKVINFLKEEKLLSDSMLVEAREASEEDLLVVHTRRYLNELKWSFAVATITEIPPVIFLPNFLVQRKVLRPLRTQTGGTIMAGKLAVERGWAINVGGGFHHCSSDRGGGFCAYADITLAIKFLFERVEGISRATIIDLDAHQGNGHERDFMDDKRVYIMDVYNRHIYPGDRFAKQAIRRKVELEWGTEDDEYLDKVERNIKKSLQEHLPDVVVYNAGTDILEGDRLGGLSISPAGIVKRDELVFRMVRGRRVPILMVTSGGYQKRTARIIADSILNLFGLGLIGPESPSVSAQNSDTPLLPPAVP
Experimental: as §1

[1] = system: acetylated tubulin (HDAC6 substrate) in N2a cells; assay: Western blot of acetylated tubulin in N2a; format: cell-based; settings: 6 h, 10, 2, and 0.2 µM
Experimental: (§2) MCF-7 and N2a cell lines were incubated with various concentrations of test agents for 6 h. Cell lysis and Western blot analyses were performed as previously described. Anti-acetylated tubulin antibody and horseradish peroxidase (HRP)-conjugated secondary antibodies (Santa Cruz Biotechnology) were used. Immunoreactive bands were visualized using enhanced chemiluminescence (Millipore, Burlington, MA, USA).
(§3) GAPDH was used as a loading control.

[2] = system: acetylated tubulin (HDAC6 substrate) in MCF-7 cells; assay: Western blot of acetylated tubulin in MCF-7; format: cell-based, human
Experimental: as §2, §3

HDAC3 = molecular target: T5, HDAC3 (Homo sapiens, UniProt O15379); assay: HDAC enzyme inhibition assay, HDAC3; format: biochemical; settings: read-out: IC50 (µM) HDAC3 (Class I)
T5 construct: purchased PBS Biosciences [sic]
T5 sequence (O15379 whole entry): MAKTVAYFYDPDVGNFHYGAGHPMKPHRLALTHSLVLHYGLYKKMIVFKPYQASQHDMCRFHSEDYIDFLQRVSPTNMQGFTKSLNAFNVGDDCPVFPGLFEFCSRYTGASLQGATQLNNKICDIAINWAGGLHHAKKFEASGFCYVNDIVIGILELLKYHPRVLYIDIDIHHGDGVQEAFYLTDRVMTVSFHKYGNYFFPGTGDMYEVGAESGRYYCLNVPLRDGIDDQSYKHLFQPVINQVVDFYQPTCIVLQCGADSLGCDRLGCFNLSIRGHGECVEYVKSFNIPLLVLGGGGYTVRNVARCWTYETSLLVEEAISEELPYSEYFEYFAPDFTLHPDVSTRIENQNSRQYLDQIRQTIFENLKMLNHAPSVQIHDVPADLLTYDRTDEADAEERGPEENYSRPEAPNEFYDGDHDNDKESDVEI
T5 sequence (Q9Y618 395-489 partner limits assumed): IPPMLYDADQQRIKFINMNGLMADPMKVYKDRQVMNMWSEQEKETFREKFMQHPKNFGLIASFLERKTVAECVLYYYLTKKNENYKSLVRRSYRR
Experimental: as §1

Structure (SMILES): O=C(CSc1nc2ccccc2c(=O)n1Cc1ccccc1[N+](=O)[O-])NO [Compound 5]
- Emax (MCF-7 cells; Homo sapiens): 17%
- melting point: 176 to 179 °C

Structure (SMILES): O=C(CCCCn1c(-c2ccc(F)cc2)nc2ccccc2c1=O)NO [Compound 14]
- IC50 (MCF-7 cells; Homo sapiens, MCF7, 48 h): 37.9 ± 1.71 µM
- Emax (MCF-7 cells; Homo sapiens): 100%
- melting point: 156 to 158 °C

Structure (SMILES): O=C(CSc1nc2ccccc2c(=O)n1Cc1ccccc1)NO [Compound 1]
- Emax (MCF-7 cells; Homo sapiens): 20%
- melting point: 188 to 191 °C

Structure (SMILES): O=C(CN1CCN(CCn2c(-c3ccc(F)cc3)nc3ccccc3c2=O)CC1)NO [Compound 11]
- melting point: 120 to 122 °C

Structure (SMILES): O=C(CSc1nc2ccccc2c(=O)n1Cc1ccc(F)c(F)c1)NO [Compound 4]
- Emax (MCF-7 cells; Homo sapiens): 23%
- melting point: 184 to 186 °C

Structure (SMILES): O=C(CSc1nc2ccccc2c(=O)n1Cc1ccc(F)cc1)NO [Compound 2]
- Emax (MCF-7 cells; Homo sapiens): 11%

Structure (SMILES): O=C(CCCCSc1nc2ccccc2c(=O)n1Cc1ccc(-c2ccccc2)cc1)NO [Compound 10]
- IC50 (MCF-7 cells; Homo sapiens, MCF7, 48 h): 14.2 ± 1.14 µM
- Emax (MCF-7 cells; Homo sapiens): 89.7%
- melting point: 180 to 182 °C

Structure (SMILES): COc1ccc(-c2nc3ccccc3c(=O)n2CCCCC(=O)NO)cc1 [Compound 13]
- IC50 (MCF-7 cells; Homo sapiens, MCF7, 48 h): 37.3 ± 1.21 µM
- Emax (MCF-7 cells; Homo sapiens): 95.8%
- melting point: 173 to 175 °C

Structure (SMILES): O=C(/C=C/c1cccc(S(=O)(=O)Nc2ccccc2)c1)NO [Belinostat, reference compound]
- IC50 (HDAC6; IC50 (µM) HDAC6 (Class IIb)): 0.2 ± 0.01 µM
- IC50 (PANC1 cells): 15.7 ± 2.3 µM
- IC50 (MDA-MB 231 cells): 3.72 ± 0.5 µM
- IC50 (EMT 6 cells): 11.3 ± 2.6 µM
- IC50 (SKOV3 cells): 32.1 ± 5.5 µM
- IC50 (Hepa1c1c7 cells): 10.1 ± 0.9 µM
- IC50 (SW620 cells): 14.9 ± 1.2 µM
- IC50 (N2A cells): 3.66 ± 0.7 µM
- IC50 (MCF-7 cells; Homo sapiens, MCF7, 48 h): 2.6 ± 1.4 µM
- Emax (MCF-7 cells; Homo sapiens): 100%
- IC50 (HDAC4): 2.7 ± 0.12 µM

Structure (SMILES): O=C(CCCCSc1nc2ccccc2c(=O)n1Cc1ccc(F)cc1)NO [Compound 8]
- IC50 (HDAC8): 0.8 ± 0.01 µM
- Selective Fold (Ratio) HDAC3/ HDAC6 (HDAC6; ratio of IC50): 7.9 fold and 7.94 fold
- Selective Fold (Ratio) HDAC4/ HDAC6 (HDAC6; ratio of IC50): >29.4 fold
- Selective Fold (Ratio) HDAC8/ HDAC6 (HDAC6; ratio of IC50): 2.3 fold and 2.32 fold
- Selective Fold (Ratio) HDAC11/ HDAC6 (HDAC6; ratio of IC50): >29.4 fold
- IC50 (HDAC6; read-out: IC50 (µM) HDAC6 (Class IIb)): 2.3 µM and 0.3 µM
- IC50 (PANC1 cells): 12.8 ± 0.75 µM
- IC50 (MDA-MB 231 cells): 0.51 ± 0.02 µM
- HDAC11 inhibition compared to Belinostat (in words) (HDAC11; dose-dependent): higher activity against HDAC11 compared to the reference
- IC50 (HDAC11; read-out: IC50 (µM) HDAC11 (Class IV)): ~3 µM
- IC50 (EMT 6 cells): 1.3 ± 0.3 µM
- acetylation of tubulin (Western blot) [1]: induced acetylated tubulin levels in a dose-dependent manner
- IC50 (SKOV3 cells): 4.5 ± 0.1 µM
- IC50 (Hepa1c1c7 cells): 1.3 ± 0.2 µM
- IC50 (SW620 cells): 0.81 ± 0.01 µM
- IC50 (N2A cells): 3.2 ± 0.1 µM
- IC50 (MCF-7 cells; Homo sapiens, MCF7, 48 h): 3.4 µM
- Emax (MCF-7 cells; Homo sapiens): 90.6%
- IC50 (MCF-7 cells): 3.44 ± 1.11 µM
- acetylation level of tubulin (Western blot) at 10 µM ([2]; 10 µM, cell line not named): increased acetylation level of tubulin
- acetylation of tubulin (Western blot) ([2]; MCF-7, 6 h, 10, 2, and 0.2 µM): induced acetylated tubulin levels in a dose-dependent manner
- IC50 (HDAC4): > 10 µM
- IC50 (HDAC3): 2.7 ± 0.08 µM
- melting point: 138 to 140 °C

Structure (SMILES): O=C(CSc1nc2ccccc2c(=O)n1Cc1cccc(F)c1)NO [Compound 3]
- Emax (MCF-7 cells; Homo sapiens): 24%
- melting point: 177 to 180 °C

Structure (SMILES): Cc1ccc(Cn2c(SCC(=O)NO)nc3ccccc3c2=O)cc1 [Compound 6]
- Emax (MCF-7 cells; Homo sapiens): 22%
- melting point: 184 to 186 °C

Structure (SMILES): O=C(CCCCSc1nc2ccccc2c(=O)n1Cc1cccc(F)c1)NO [Compound 9]
- IC50 (MCF-7 cells; Homo sapiens, MCF7, 48 h): 36.9 ± 1.12 µM
- Emax (MCF-7 cells; Homo sapiens): 96.8%
- antiproliferative activity (in words) (MCF-7 cells; MCF-7): loss of activity
- melting point: 145 to 147 °C

Structure (SMILES): O=C(CCCCn1c(-c2ccco2)nc2ccccc2c1=O)NO [Compound 15]
- Emax (MCF-7 cells; Homo sapiens): 1.5%
- melting point: 195 to 197 °C
